Test results taken from patent publication US20150133492A1, “N-desmethyldauricine, A Novel Autophagic Enhancer for Treatment of Cancers and Neurodegenerative Conditions Thereof” (Macau University of Science and Technology, priority 2013, published 2015).

How the values were obtained:
[1] = test system: panel of human cancer cells; assay: MTT cytotoxicity assay, panel of human cancer cells; format: cell-based; details: 72 hours, read-out: mean IC50, cell cytotoxicity
Method: The test compound of N-desmethyldauricine was dissolved in DMSO at a final concentration of 100 mmol/L and stored at −20° C. Cytotoxicity was assessed using the 3-(4,5-dimethylthiazol-2-yl)-2,5-diphenyltetrazolium bromide assay as previously described^17. Cell number, 4000-8000 of HeLa (human cervical cancer), MCF-7 (human breast cancer), HepG2 (human liver cancer), Hep3B (human liver cancer), H1299 (human lung cancer), A549 (human lung cancer), PC3 (human prostate cancer), LLC-1 (mouse Lewis lung carcinoma) and LO2 (human normal liver) cells were seeded on 96-well plates per well, respectively. After overnight pre-incubation, the cells were exposed to different concentrations of N-desmethyldauricine (namely […], 0.039 μmol) for 3 days. Subsequently, 10 μL of MTT reagents was added to each well and incubated at 37° C. for 4 hours followed by the addition of 100 μL solubilization buffer (10% SDS in 0.01 mol/L HCl) and overnight incubation. Absorbance at 585 nm was determined from each well on the following day. The percentage of cell viability was calculated using the following formula: Cell viability (%)=Cells number treated/Cells number DMSO control×100. Data was obtained from three independent experiments.

HeLa cancer cells = assay: Quantification of autophagy GFP-LC3 puncta in HeLa; format: cell-based, human; details: 10 μM, 4 hours, compared to DMSO control
Method: (§1) GFP-LC3 puncta formation was quantified as previously described^15. In brief, cells grown on coverslips in a 6-well plate were treated with or without 10 μM of N-desmethyldauricine for 4 hours, the cells were then fixed in 4% paraformaldehyde for 20 minutes at room temperature and then rinsed with PBS. Slides were mounted with FluorSave™ mounting media (Calbiochem, San Diego, Calif.) and examined by fluorescence microscopy. The number of GFP-positive cells with GFP-LC3 puncta formation was examined under the Nikon ECLIPSE 80i microscope. Representative images were captured with CCD digital camera Spot RT3™ (Diagnostic Instruments, Inc., Melville, N.Y.). To quantify for autophagy, the percentage of cells with punctate GFP-LC3 fluorescence was calculated by counting the number of the cells with punctate GFP-LC3 fluorescence in GFP-positive cells. A minimum of 150 cells from 3 randomly selected fields was scored.

[2] = test system: panel of cancer and normal cells; assay: Quantification of autophagy GFP-LC3 puncta in cell panel; format: cell-based; details: fluorescent microscopy
Method: as §1

[3] = test system: Atg7-knockout (Atg7−/−) mouse embryonic fibroblasts; assay: GFP-LC3 puncta in Atg7 deficient MEFs; format: cell-based
Method: as §1, with “brief, both Atg7 wild-type and deficient mouse embryonic fibroblasts (MEFs)” for “brief, cells”, “with indicated concentrations” for “with or without 10 μM”, “of N-desmethyldauricine. Both Atg7 wild-type and deficient mouse embryonic fibroblasts” for “of N-desmethyldauricine for 4 hours, the cells”

SERCA1A = target: T1, SERCA1A (Oryctolagus cuniculus, UniProt P04191); assay: Measurement of SERCA Ca2+ ATPase activity; format: biochemical; details: rabbit skeletal muscle SR, dose-dependent
T1 construct: Purified Ca^2+ ATPase (SERCA1A) is prepared from female rabbit hind leg muscle; from tissue; host or cells: female rabbit hind leg skeletal muscle (sarcoplasmic reticulum)
Method: Purified Ca^2+ ATPase (SERCA1A) is prepared from female rabbit hind leg muscle^24. ATPase activity is determined using the enzyme-coupled method utilizing pyruvate kinase and lactate dehydrogenase as previously described in Michelangeli et al. (1990)^25. All SERCA inhibition data is fitted to the allosteric dose versus effect equation using Fig P (Biosoft):
Activity=minimum activity+(maximum activity−minimum activity)/(1+([I]IC50)P).
In molecular docking, 5000 poses were generated during the initial phase of the docking calculation, out of which the best 1000 poses were chosen for energy minimization by 1000 steps of conjugate gradient minimizations. The performance of molecular docking was evaluated by comparing the docked pose with the experimental structure for N-desmethyldauricine in the X-ray co-crystallized complex. TG in the X-ray co-crystallized complexes was re-docked into the binding sites and the RMSD for re-docked result of TG is 1.78 Å. […] To ascertain whether the SERCA pump is suppressed by N-desmethyldauricine, SERCA inhibitory effect is quantified using purified rabbit skeletal muscle sarcoplasmic reticulum (SR) membranes to measure the expression of the SERCA1A isoform by the SR membrances^26. Most of the existing SERCA inhibitors show similar inhibitory effect in SERCA isoform ^15,16. […]

PC 12 cells = assay: Crystal violet cell viability assay in PC-12; format: cell-based; details: 7.5 μM, 24 hours
Method: (§2) For cell viability assay measured by crystal violet staining, PC-12 cells were incubated in 35 mm disc followed by the addition of N-desmethyldauricine at 7.5 μM for 24 hours. The cells were then incubated with crystal violet for 10 minutes followed by a ddH2O wash. The stained cells image was captured by CCD digital camera Spot RT3™ under the Nikon ECLIPSE 80i microscope with 4× magnification. Cell viability was quantified by dissolving stained cells in 10% acetic acid (200 μL/well). The colorimetric reading of the solute mixture was then determined by spectrophotometer at OD 560 nm. The percentage of cell viability was calculated using the following formula: Cell viability (%)=Cells numbertreated/Cells numberDMSO control×100. Data was obtained from three independent experiments.

[4] = test system: mutant huntingtin overexpressed PC 12 cells; assay: Viability of mutant huntingtin overexpressed PC 12 cells; format: cell-based; details: PC 12, 7.5 μM
Method: as §2
PC 12 cells were transfected transiently with EGFP-HDQ23/55/74 (Q23, Q55, Q74) plasmids for 24 hours using Lipofectamine Plus LTX reagent (Invitrogen) according to the manufacturer's protocol. The transfected cells were then treated with N-desmethyldauricine for 24 hours. The removal of mutant huntingtin, (Q23, Q55, Q74) were then quantitated by immunoblotting with antibody against EGFP.

T1 sequence (P04191 1-994 isoform P04191-2): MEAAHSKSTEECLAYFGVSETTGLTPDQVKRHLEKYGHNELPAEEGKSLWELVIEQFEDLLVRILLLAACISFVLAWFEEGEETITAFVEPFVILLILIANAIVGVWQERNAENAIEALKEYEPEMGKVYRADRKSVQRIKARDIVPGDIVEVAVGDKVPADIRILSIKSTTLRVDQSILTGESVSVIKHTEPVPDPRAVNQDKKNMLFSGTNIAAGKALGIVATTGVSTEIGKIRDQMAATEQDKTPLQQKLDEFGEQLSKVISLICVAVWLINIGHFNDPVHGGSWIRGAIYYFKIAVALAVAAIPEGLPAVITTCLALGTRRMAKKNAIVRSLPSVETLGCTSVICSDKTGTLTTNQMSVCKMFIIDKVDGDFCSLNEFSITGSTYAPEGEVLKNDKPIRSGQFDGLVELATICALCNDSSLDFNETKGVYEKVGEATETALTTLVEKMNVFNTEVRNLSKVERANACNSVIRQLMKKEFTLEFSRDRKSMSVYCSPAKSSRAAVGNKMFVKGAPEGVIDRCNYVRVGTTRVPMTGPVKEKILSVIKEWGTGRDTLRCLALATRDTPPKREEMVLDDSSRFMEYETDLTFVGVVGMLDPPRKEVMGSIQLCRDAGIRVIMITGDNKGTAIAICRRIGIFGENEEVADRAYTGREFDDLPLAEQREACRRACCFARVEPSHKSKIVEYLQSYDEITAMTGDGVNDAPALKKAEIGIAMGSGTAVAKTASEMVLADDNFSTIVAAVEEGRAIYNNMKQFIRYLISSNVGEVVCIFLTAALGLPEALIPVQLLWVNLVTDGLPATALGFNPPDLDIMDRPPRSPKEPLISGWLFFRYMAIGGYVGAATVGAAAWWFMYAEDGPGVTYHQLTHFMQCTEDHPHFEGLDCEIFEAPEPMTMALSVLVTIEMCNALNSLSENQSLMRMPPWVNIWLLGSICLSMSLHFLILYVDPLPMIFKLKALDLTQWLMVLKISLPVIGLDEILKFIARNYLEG

Q: COc1cc2c(cc1OC)[C@@H](Cc1ccc(Oc3cc(C[C@H]4NCCc5cc(OC)c(OC)cc54)ccc3O)cc1)N(C)CC2 [N-desmethyldauricine] was tested. Which IC50 [1] did it give?
A: The IC50 was 8.23 to 19.7 µM.

Q: What about the GFP-LC3 puncta formation (HeLa cancer cells) of the same compound?
A: Its GFP-LC3 puncta formation is “significantly induced”.

Q: What about the GFP-LC3 puncta formation [2] of the same compound?
A: Its GFP-LC3 puncta formation is “increased”.

Q: What about the GFP-LC3 puncta formation [3] of the same compound?
A: Its GFP-LC3 puncta formation is “not”.

Q: And the “Ca2+ ATPase activity of SERCA” value (SERCA1A)?
A: Its value is “inhibited”.

Q: And the “toxicity in PC 12 cells” value (PC 12 cells)?
A: Its value is “no toxicity”.

Q: And the “cell viability of mutant huntingtin overexpressed PC 12 cells” value [4]?
A: The value was “enhance the cell viability”.

Q: What about the huntingtin aggregates-mediated cytotoxicity [4] of the same compound?
A: Its huntingtin aggregates-mediated cytotoxicity is “reduce”.
